Four molecules from patent US20230414622A1, “PHARMACEUTICAL METHOTREXATE COMPOSITION” (Leopold MTX GmbH, priority 2020, published 2023) can be followed below.

Data set [1] addresses T1, TNF-α (Homo sapiens, UniProt P01375).
T1 construct: purchased Acrobiosystems, USA
Description: Microscale thermophoresis (MST) binding affinity to Cy5-labelled recombinant TNF-α. Particulars: for Kd: PBS pH 7.5, 25° C., mean of six independent test series. The procedure: (§1) In addition to thermodynamic stability, the binding affinity of the biopharmaceuticals in compositions according to the present invention was determined and compared with the binding affinity in corresponding reference compositions.
(§2) Binding studies were performed using microscale thermophoresis (MST) with the Monolith NT.115 device (NanoTemper Technologies, Munich, Germany).
(§3) For the MST measurements, 10 microliters each of the biopharmaceutical at a concentration of […] were mixed with 10 microliters each of a serial dilution of methotrexate disodium in PBS buffer pH 7.5 to prepare the compositions according to the invention. The final concentration of MTX in all samples was 55 micromoles per liter, while the concentration of the respective ligand ranged from 1.5 micromoles per liter to 25 millimoles per liter.
(§4) Samples were loaded into coated capillaries (NanoTemper Technologies) according to the manufacturer's instructions and fluorescence was recorded for 20 seconds at 100% laser power and 40% MST power. The temperature of the instrument was set at 25° C. for all measurements. After the recordal of MST time traces, the data were analyzed. The equilibrium dissociation constant (KD) was determined based on the change in normalized fluorescence as a function of the concentration of the corresponding ligand after 14 seconds of thermophoresis using MO affinity analysis software (NanoTemper Technologies).
(§5) The values shown are the arithmetic mean values from six independent test series in each case.
On the technique in general: Microscale thermophoresis detects binding through changes in fluorescence in a small temperature gradient.

Data set [2] can be described thus: Thermal unfolding profiles (Tycho NT.6 fluorimeter): temperature stability of the biologic with or without MTX. The class given is physicochemical. From the text: To prepare the compositions according to the invention, the biologics were combined with methotrexate disodium at concentrations of 25 milligrams per milliliter, 16.6 milligrams per milliliter, 10.0 milligrams per milliliter, 7.14 milligrams per milliliter, and 5.0 milligrams per milliliter, respectively. Phosphate buffered saline (PBS buffer) pH 7.5 was used as the solvent. As reference composition in each case served the biopharmaceutical in equivalent concentration in PBS buffer pH 7.5 without the addition of methotrexate disodium.
In each case, the above-noted concentrations were the final concentration of the biopharmaceutical or the methotrexate in the pharmaceutical composition.
After 20 days of incubation, the compositions were measured using a Tycho NT.6 fluorimeter (NanoTemper Technologies, Munich, Germany) according to the manufacturer's instructions to determine the thermal unfolding profiles of the biologics.
The inflection point of each curve indicates the denaturation temperature of the biopharmaceutical in the composition.

For data set [3], the target named is CD80. Briefly: Microscale thermophoresis (MST) binding affinity to Cy5-labelled recombinant CD80. The note with it: for Kd: PBS pH 7.5, 25° C., mean of six independent test series. The procedure: as §1, §2
Recombinant TNF-α, CD20, and CD80 (Acrobiosystems, USA) were labeled for MST measurements using the fluorescent dye Cy5 (Thermo Fisher Scientific, Germany) according to the manufacturer's instructions. The concentration of the recombinant proteins was measured after labeling using a UV-Vis spectrophotometer, and a labeling efficiency of 80 was determined.
as §3, §4, §5

In data set [4] the target is T2, Recombinant CD20 (Acrobiosystems), Cy5-labelled (UniProt P11836 1-297, limits assumed, labelled with fluorescent dye Cy5 (site not stated)).
T2 construct: Bought recombinant protein; construct not described; also called B-lymphocyte antigen CD20
T2 sequence (looked up): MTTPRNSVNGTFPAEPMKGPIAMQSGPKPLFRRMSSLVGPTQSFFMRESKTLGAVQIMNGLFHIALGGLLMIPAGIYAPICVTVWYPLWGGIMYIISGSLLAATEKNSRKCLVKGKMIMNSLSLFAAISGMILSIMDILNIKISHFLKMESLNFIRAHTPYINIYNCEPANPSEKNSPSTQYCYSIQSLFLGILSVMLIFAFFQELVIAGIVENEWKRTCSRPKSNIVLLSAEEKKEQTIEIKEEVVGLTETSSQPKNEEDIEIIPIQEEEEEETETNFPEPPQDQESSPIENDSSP
Description: microscale thermophoresis, Cy5-labelled CD20, PBS pH 7.5, 25 °C, with methotrexate disodium; mean of six series.

Data set [5] deals with T2, Recombinant CD20 (Acrobiosystems), …. Description: microscale thermophoresis; KD with MTX against the reference without MTX.
The target is the same in data set [6]. Description: microscale thermophoresis, Cy5-labelled CD20, PBS pH 7.5, 25 °C, reference without MTX; mean of six series.
Setting [7] is: MTX 55 micromoles per liter, read-out: KD with MTX.
Where [8] appears, read: read-out: KD without MTX (reference).

Read-outs that look alike come from different tables or passages of the source.

Sequence of CD80 (P33681 35-288): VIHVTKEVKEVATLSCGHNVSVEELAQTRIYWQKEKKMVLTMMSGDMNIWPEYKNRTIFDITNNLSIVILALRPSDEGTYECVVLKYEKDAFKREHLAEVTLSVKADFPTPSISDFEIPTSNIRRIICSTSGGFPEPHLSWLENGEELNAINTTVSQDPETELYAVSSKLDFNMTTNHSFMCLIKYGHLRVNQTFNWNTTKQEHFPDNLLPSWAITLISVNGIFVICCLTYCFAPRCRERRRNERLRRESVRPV
T1 sequence (P01375 77-233 limits assumed): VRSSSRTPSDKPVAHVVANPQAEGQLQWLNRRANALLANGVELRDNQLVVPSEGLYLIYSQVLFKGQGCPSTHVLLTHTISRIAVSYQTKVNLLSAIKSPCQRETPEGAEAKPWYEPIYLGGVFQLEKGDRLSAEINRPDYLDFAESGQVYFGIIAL

By Kd is commonly meant the concentration at which binding is half-saturated. Adalimumab: the Kd in data set [1] (setting [7]) worked out at 0.14 nM; in data set [1] (setting [8]) it was 0.147 nM. Besides, the “binding affinity / binding strength in composition with MTX compared to control without MTX” value in data set [1] (in words, the b130 statement covers all tested ligands (TNF-α, CD20, CD80)) is “higher binding affinity”. In data set [1] (with MTX vs without MTX), the “Relative increase in binding strength” value was determined as 5%.

In the case of Etanercept, the “temperature stability in composition with MTX” value in data set [2] (MTX 5 milligrams per milliliter, PBS pH 7.5, 20 days of incubation) turned out to be 74.3 °C. The “denaturation temperature / temperature stability in reference composition without MTX” value in data set [2] (PBS buffer pH 7.5, without MTX, after 20 days of incubation) amounted to 73.9 °C. Further, the Kd in data set [1] (setting [7]) is 0.005 nM; in data set [1] (setting [8]) it was 0.0116 nM.

For the molecule “Rituximab: biologic that specifically binds B-lymphocyte antigen CD20 (trade names: MabThera, Rituxan)”, the Kd in data set [3] (setting [7]) amounted to 6.8 nM; in data set [3] (setting [8]) it was 11.3 nM. In addition, the “Relative increase in binding strength” value in data set [3] (with MTX vs without MTX) is recorded as 66%.

B1: Rituximab (MabThera) (antibody, V domains shown)
VH: QVQLQQPGAELVKPGASVKMSCKASGYTFTSYNMHWVKQTPGRGLEWIGAIYPGNGDTSYNQKFKGKATLTADKSSSTAYMQLSSLTSEDSAVYYCARSTYYGGDWYFNVWGAGTTVTVSA
VL: QIVLSQSPAILSASPGEKVTMTCRASSSVSYIHWFQQKPGSSPKPWIYATSNLASGVPVRFSGSGSGTSYSLTISRVEAEDAATYYCQQWTSNPPTFGGGTKLEIK
B1: the Kd in data set [4] came out at 6.8 nM; in data set [6], 11.3 nM. In addition, in data set [5], the “Relative increase in binding strength” value is 66%.
